Data taken from article PMC3448645, “Functional Studies of ssDNA Binding Ability of MarR Family Protein TcaR from Staphylococcus epidermidis” (PLoS ONE, 2012).

Key:
TcaR [1] = biological target: T1, TcaR (Staphylococcus epidermidis, UniProt Q5HLN6); test: EMSA, inhibition of TcaR-GC33 ssDNA complex; type: binding; settings: 1 uM GC33 ssDNA, 2 uM TcaR dimer, 2 or 20 uM antibiotic, pH 8.0, room temperature
T1 construct: homodimer

TcaR [2] = biological target: T1, TcaR; test: EMSA, inhibition of TcaR-GC33 ssDNA complex; also SPR; type: binding; settings: 1 uM GC33 ssDNA, 2 uM TcaR dimer, 2 or 20 uM antibiotic, pH 8.0, room temperature; SPR: 64 nM TcaR, 640 nM antibiotic, pH 7.5, 25 °C

O=C(N[C@H](CO)[C@H](O)c1ccc([N+](=O)[O-])cc1)C(Cl)Cl [chloramphenicol]
EMSA, inhibition of TcaR-GC33 ssDNA complex (TcaR [1]): kanamycin, chloramphenicol and gentamycin interfered with the ssDNA (GC33) binding activity of TcaR

NC[C@H]1O[C@H](O[C@H]2[C@H](O)[C@@H](O[C@H]3O[C@H](CO)[C@@H](O)[C@H](N)[C@H]3O)[C@H](N)C[C@@H]2N)[C@H](O)[C@@H](O)[C@@H]1O [kanamycin]
EMSA, inhibition of TcaR-GC33 ssDNA complex; also SPR (TcaR [2]): kanamycin, chloramphenicol and gentamycin interfered with the ssDNA (GC33) binding activity of TcaR
